Patent US10155768B2, “Fused pyrimidine compound or salt thereof” (TAIHO PHARMACEUTICAL CO., LTD., priority 2016, dated 2018)

Assay: Evaluation of stability in liver microsome
Settings: mouse liver microsome 0.25 mg/mL, 1 μM test compound, 37° C. for 30 minutes
Experimental: Solutions of the test compounds in DMSO/acetonitrile (the final concentration of each test compound was 1 μM, the final concentration of DMSO was 0.01%, and the final concentration of acetonitrile was 1%) were individually added to a liver microsome mixture solution (mouse liver microsome with a final concentration of 0.25 mg/mL, a potassium phosphate buffer with a final concentration of 100 mM, and magnesium chloride with a final concentration of 3 mM), and each mixture was pre-incubated at 37° C. for 5 minutes. […] After incubation at 37° C. for 30 minutes, a double amount of ethanol was added thereto to terminate the reaction, thereby obtaining post-reaction samples. A double amount of ethanol was added to each of the remaining mixture solutions, and a NADPH-generating system was further added thereto, thereby obtaining pre-reaction samples. The pre-reaction samples and post-reaction samples were centrifuged at 2000×g, and their supernatant was filtered through a glass filter. Each filtrate was then introduced into LC-MS/MS, and MS/MS peaks of the test compounds were detected. From the ratio of the post-reaction MS/MS peak to the pre-reaction MS/MS peak of the test compounds, the percentage of the remaining test compounds (remaining %) was calculated.
In the case of `COCc1ccc(NC(=O)c2c(C#Cc3cnc4[nH]ccc4c3)n(C3(C)CC3)c3ncnc(N)c23)cc1` [Example 128, 6-((1H-pyrrolo[2,3-b]pyridine-5-yl)ethynyl)-4-amino-N-(4-(methoxymethyl)phenyl)-7-(1-methylcyclopropyl)-7H-pyrrolo[2,3-d]pyrimidine-5-carboxamide], the “Remaining (%)” value is reported as 82%.
For `COCc1ccc(NC(=O)c2c(C#Cc3ccn[nH]3)n(C3(C)CC3)c3ncnc(N)c23)cc1` [Example 129, 6-((1H-pyrazol-5-yl)ethynyl)-4-amino-N-(4-(methoxymethyl)phenyl)-7-(1-methylcyclopropyl)-7H-pyrrolo[2,3-d]pyrimidine-5-carboxamide], the “Remaining (%)” value was 54%.
For `COCc1ccc(NC(=O)c2c(C#Cc3cccc(F)c3)n(C3(C)CC3)c3ncnc(N)c23)cc1` [Example 130, 4-amino-6-((3-fluorophenyl)ethynyl)-N-(4-(methoxymethyl)phenyl)-7-(1-methylcyclopropyl)-7H-pyrrolo[2,3-d]pyrimidine-5-carboxamide], the “Remaining (%)” value was 84%.
With `COCc1ccc(NC(=O)c2c(C#CC3(O)CCCC3)n(C3(C)CC3)c3ncnc(N)c23)cc1` [Example 131, 4-amino-6-((1-hydroxycyclopentyl)ethynyl)-N-(4-(methoxymethyl)phenyl)-7-(1-methylcyclopropyl)-7H-pyrrolo[2,3-d]pyrimidine-5-carboxamide] the “Remaining (%)” value was 55%.
In the case of `COCc1ccc(NC(=O)c2c(C#CCN3CCN(C)CC3)n(C3(C)CC3)c3ncnc(N)c23)cc1` [Example 132, 4-amino-N-(4-(methoxymethyl)phenyl)-7-(1methylcyclopropyl)-6-(3-(4-methylpiperazin-1-yl)prop-1-yn-1-yl)-7H-pyrrolo[2,3-d]pyrimidine-5-carboxamide], the “Remaining (%)” value is reported as 77%.
For `COCc1ccc(NC(=O)c2c(SC)n(C3(C)CC3)c3ncnc(N)c23)cc1` [Example 133, 4-amino-N-(4-methoxymethyl)phenyl-7-(1-methylcyclopropyl)-6-(methylthio)-7H-pyrrolo[2,3-d]pyrimidine-5-carboxamide], the “Remaining (%)” value was 70%.
For `COCc1ccc(NC(=O)c2c(C#CC(C)(C)N)n(C3(C)CC3)c3ncnc(N)c23)cc1` [Example 134, 4-amino-6-(3-amino-3-methylbut-1-yn-1-yl)-N-(4-(methoxymethyl)phenyl)-7-(1-methylcyclopropyl)-7H-pyrrolo[2,3-d]pyrimidine-5-carboxamide], the “Remaining (%)” value was 79%.
In the case of `COCc1ccc(NC(=O)c2c(OCC3CCCO3)n(C3(C)CC3)c3ncnc(N)c23)cc1` (centres unmarked) [Example 135, 4-amino-N-(4-(methoxymethyl)phenyl)-7-(1-methylcyclopropyl)-6-((tetrahydrofuran-2-yl)methoxy)-7H-pyrrolo[2,3-d]pyrimidine-5-carboxamide], the “Remaining (%)” value is reported as 67%.
In the case of `COCc1ccc(NC(=O)c2c(OCCN3CCCC3=O)n(C3(C)CC3)c3ncnc(N)c23)cc1` [Example 136, 4-amino-N-(4-(methoxymethyl)phenyl)-7-(1-methylcyclopropyl)-6-(2-(2-oxopyrrolidin-1-yl)ethoxy)-7H-pyrrolo[2,3-d]pyrimidine-5-carboxamide], the “Remaining (%)” value is reported as 78%.
For `COCc1ccc(NC(=O)c2c(OCC(C)(C)OC)n(C3(C)CC3)c3ncnc(N)c23)cc1` [Example 137, 4-amino-6-(2-methoxy-2-methylpropoxy)-N-(4-(methoxymethyl)phenyl)-7-(1-methylcyclopropyl)-7H-pyrrolo[2,3-d]pyrimidine-5-carboxamide], the “Remaining (%)” value was 53%.
In the case of `COCc1ccc(NC(=O)c2c(OCC3CCCC3)n(C3(C)CC3)c3ncnc(N)c23)cc1` [Example 140, 4-amino-6-(cyclopentylmethoxy)-N-(4-(methoxymethyl)phenyl)-7-(1-methylcyclopropyl)-7H-pyrrolo[2,3-d]pyrimidine-5-carboxamide], the “Remaining (%)” value is reported as 52%.
With `COCc1ccc(NC(=O)c2c(OCC3CCOCC3)n(C3(C)CC3)c3ncnc(N)c23)cc1` [Example 141, 4-amino-N-(4-(methoxymethyl)phenyl)-7-(1-methylcyclopropyl)-6-((tetrahydro-2H-pyran-4-yl)methoxy)-7H-pyrrolo[2,3-d]pyrimidine-5-carboxamide] the “Remaining (%)” value was 68%.
In the case of `COCc1ccc(NC(=O)c2c(C#CCC3(O)CCOCC3)n(C3(C)CC3)c3ncnc(N)c23)cc1` [Example 143, 4-amino-6-(3-(4-hydroxytetrahydro-2H-pyran-4-yl)prop-1-yn-1-yl)-N-(4-(methoxymethyl)phenyl)-7-(1-methylcyclopropyl)-7H-pyrrolo[2,3-d]pyrimidine-5-carboxamide], the “Remaining (%)” value is reported as 68%.
For `COCc1ccc(NC(=O)c2c(C#Cc3cnn(C(C)C)c3)n(C3(C)CC3)c3ncnc(N)c23)cc1` [Example 144, 4-amino-6-((1-isopropyl-1H-pyrazol-4-yl)ethynyl)-N-(4-(methoxymethyl)phenyl)-7-(1-methylcyclopropyl)-7H-pyrrolo[2,3-d]pyrimidine-5-carboxamide], the “Remaining (%)” value was 79%.
For `COCc1ccc(NC(=O)c2c(-c3ccc(CO)cc3)n(C3(C)CC3)c3ncnc(N)c23)cc1` [Example 145, 4-amino-6-(4-(hydroxymethyl)phenyl)-N-(4-(methoxymethyl)phenyl)-7-(1-methylcyclopropyl)-7H-pyrrolo[2,3-d]pyrimidine-5-carboxamide], the “Remaining (%)” value was 72%.
For `COCc1ccc(NC(=O)c2c(-c3ccc(NC(C)=O)nc3)n(C3(C)CC3)c3ncnc(N)c23)cc1` [Example 147, 6-(6-acetamidopyridin-3-yl)-4-amino-N-(4-(methoxymethyl)phenyl)-7-(1-methylcyclopropyl)-7H-pyrrolo[2,3-d]pyrimidine-5-carboxamide], the “Remaining (%)” value was 68%.
With `COCc1ccc(NC(=O)c2c(-c3ccc(O)cc3)n(C3(C)CC3)c3ncnc(N)c23)cc1` [Example 148, 4-amino-6-(4-hydroxyphenyl)-N-(4-(methoxymethyl)phenyl)-7-(1-methylcyclopropyl)-7H-pyrrolo[2,3-d]pyrimidine-5-carboxamide] the “Remaining (%)” value was 61%.
In the case of `C=C(C)c1c(C(=O)Nc2ccc(COC)cc2)c2c(N)ncnc2n1C1(C)CC1` [Example 149, 4-amino-N-(4-(methoxymethyl)phenyl)-7-(1-methylcyclopropyl)-6-(prop-1-en-2-yl)-7H-pyrrolo[2,3-d]pyrimidine-5-carboxamide], the “Remaining (%)” value is reported as 62%.
In the case of `COCc1ccc(NC(=O)c2c(-c3cnn(C)c3)n(C3(C)CC3)c3ncnc(N)c23)cc1` [Example 150, 4-amino-N-(4-(methoxymethyl)phenyl)-6-(1-methyl-1H-pyrazol-4-yl)-7-(1-methylcyclopropyl)-7H-pyrrolo[2,3-d]pyrimidine-5-carboxamide], the “Remaining (%)” value is reported as 78%.
With `COCc1ccc(NC(=O)c2c(C#CCC3CCOCC3)n(C3(C)CC3)c3ncnc(N)c23)cc1` [Example 152, 4-amino-N-(4-(methoxymethyl)phenyl)-7-(1-methylcyclopropyl)-6-(3-(tetrahydro-2H-pyran-4-yl)prop-1-yn-1-yl)-7H-pyrrolo[2,3-d]pyrimidine-5-carboxamide] the “Remaining (%)” value was 57%.
